In PubChem BioAssay (NCI):
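A five-concentration, 48-hour dose response in 96-well plates underlies each endpoint, interpolated linearly between surrounding concentrations. GI50 marks 50% less growth. TGI marks complete inhibition of growth.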

How the values were obtained:
Assay in all cases: NCI anticancer screen, dose series, 48 h
HCT-15 colon = test system: HCT-15 colon
OVCAR-8 ovarian = test system: OVCAR-8 ovarian
U251 CNS = test system: U251 CNS
COLO 205 colon = test system: COLO 205 colon
UO-31 renal = test system: UO-31 renal
DU-145 prostate = test system: DU-145 prostate
786-0 renal = test system: 786-0 renal
SK-MEL-5 melanoma = test system: SK-MEL-5 melanoma
SF-295 CNS = test system: SF-295 CNS

| Structure (SMILES) | GI50 (HCT-15 colon) | TGI (HCT-15 colon) | GI50 (OVCAR-8 ovarian) | TGI (OVCAR-8 ovarian) | GI50 (U251 CNS) | TGI (U251 CNS) | GI50 (COLO 205 colon) | TGI (COLO 205 colon) | GI50 (UO-31 renal) | TGI (UO-31 renal) | GI50 (DU-145 prostate) | TGI (DU-145 prostate) | GI50 (786-0 renal) | TGI (786-0 renal) | GI50 (SK-MEL-5 melanoma) | TGI (SK-MEL-5 melanoma) | GI50 (SF-295 CNS) | TGI (SF-295 CNS) |
| --- | --- | --- | --- | --- | --- | --- | --- | --- | --- | --- | --- | --- | --- | --- | --- | --- | --- | --- |
| Nc1ccc2c(c1)C(=O)C(=O)c1c-2nc2ccccn12 | 0.427 µM | 1.87 µM | 1.29 µM | 3.23 µM | 1.28 µM | 2.58 µM | 10.8 µM | 26.6 µM | 1.28 µM | 2.64 µM | 0.556 µM | 1.79 µM | 2.24 µM | 4.86 µM | 0.178 µM | 0.329 µM | 1.53 µM | 2.89 µM |
| CCCCCCCCCCCCNC(C)=O |  | 33.1 µM |  | 44.5 µM |  | 30.1 µM |  | 31.6 µM |  | 46.9 µM |  | > 100 µM |  | 32.5 µM |  | 30.4 µM |  | 34.4 µM |
| Cc1nc(-c2cccc(Nc3nc(-c4ccc(Cl)cc4)cs3)c2)cs1 | 7.83 µM | 18.6 µM | 10.1 µM | 23.2 µM | 8.34 µM | 16.4 µM | 11.9 µM | 31.1 µM | 10 µM | 21.1 µM | 9.73 µM | 18.4 µM | 10.9 µM | 21.8 µM | 10.5 µM | 19.7 µM | 10.6 µM | 28.5 µM |
| CCCCON(OC(=O)c1ccccc1)C(=O)c1ccccc1 | > 100 µM | > 100 µM | > 100 µM | > 100 µM | > 100 µM | > 100 µM | > 100 µM | > 100 µM | > 100 µM | > 100 µM | > 100 µM | > 100 µM | > 100 µM | > 100 µM | > 100 µM | > 100 µM | > 100 µM | > 100 µM |
| CC(=O)NCCc1c2c(c3nccc4c3c1Nc1ccccc1-4)OCS2 | 1.26 µM | 8.77 µM | 2.09 µM | > 33.1 µM | 1.72 µM | 15.7 µM | 2.38 µM | 15.6 µM | 1.05 µM | 6.37 µM | 1.06 µM | 2.48 µM | 3.66 µM | 28.9 µM | 2.99 µM | 14.5 µM | 1.87 µM | 15.1 µM |
| N#Cc1c(-c2ccccc2)nc(SCC2CO2)nc1N1CCOCC1 (stereo not drawn) | 4.71 µM | > 100 µM | 35.9 µM | > 100 µM | 19.2 µM | > 100 µM | 11.3 µM | 67.6 µM | 5.61 µM | > 100 µM | 14.2 µM | > 100 µM | 4.12 µM | > 46.1 µM | 10.2 µM | > 100 µM | 2.67 µM | 28.2 µM |
| FC(F)(F)Oc1cccc(-c2cnc3ccc(-c4ccncc4)nn23)c1 | 0.608 µM | > 100 µM | 1.47 µM | > 100 µM | 0.833 µM | > 100 µM | 1.5 µM | 16.7 µM | 0.708 µM | 4.77 µM | 1.6 µM | > 100 µM | 1.75 µM | > 100 µM | 1.49 µM | 3.23 µM | 1.54 µM | > 100 µM |
| CC1(C)N=C(N)N=C(N)N1c1cccc(CCCCc2cccc(S(=O)(=O)F)c2)c1 | 14.1 µM | > 100 µM | 4.84 µM | > 100 µM | 0.456 µM | 36 µM | 1.53 µM | > 100 µM | > 100 µM | > 100 µM | 1.17 µM | > 100 µM | 2.12 µM | > 100 µM | 0.535 µM | 14.8 µM | 2.45 µM | > 100 µM |
| COc1cc(C(=O)/C=C/c2c(C)n([O-])c3ccc(C)cc3[n+]2=O)cc(OC)c1OC | 1.8 µM | 4.48 µM | 3.46 µM | > 56.4 µM | 7.74 µM | 21 µM | 2 µM | 3.99 µM | 4.63 µM | 10.1 µM | 7.88 µM | 21.1 µM | 7.62 µM | 21.7 µM | 14.8 µM | 28 µM | 22.8 µM | > 68 µM |
